pIC50: −log10 of the molar value. Read-outs that look alike come from different tables or passages of the source. A value given as a limit tells only on which side of the number the result lay.

For data set [1], the target named is Nav 1.7 (Homo sapiens (Human), UniProt Q15858). The experiment in a line: Inhibition of sodium channels, Red Membrane Potential Dye FLIPR assay, veratridine depolarization. The note with it: HEK-293 cells overexpressing the channel; read-out: Nav1.7 IC50. Type of data set: cell-based.
The target of data set [2] is Nav 1.5 (Homo sapiens (Human), UniProt Q14524). Described as above. Particulars: HEK-293 cells overexpressing the channel; for inhibition at 10 µM: HEK-293 cells overexpressing Nav 1.5; for pIC50: read-out: Nav1.5 IC50; for IC50: read-out: Nav1.5 IC50 (bound given in μM). Type of data set: cell-based.
Nav 1.5, sequence (Q14524 whole entry): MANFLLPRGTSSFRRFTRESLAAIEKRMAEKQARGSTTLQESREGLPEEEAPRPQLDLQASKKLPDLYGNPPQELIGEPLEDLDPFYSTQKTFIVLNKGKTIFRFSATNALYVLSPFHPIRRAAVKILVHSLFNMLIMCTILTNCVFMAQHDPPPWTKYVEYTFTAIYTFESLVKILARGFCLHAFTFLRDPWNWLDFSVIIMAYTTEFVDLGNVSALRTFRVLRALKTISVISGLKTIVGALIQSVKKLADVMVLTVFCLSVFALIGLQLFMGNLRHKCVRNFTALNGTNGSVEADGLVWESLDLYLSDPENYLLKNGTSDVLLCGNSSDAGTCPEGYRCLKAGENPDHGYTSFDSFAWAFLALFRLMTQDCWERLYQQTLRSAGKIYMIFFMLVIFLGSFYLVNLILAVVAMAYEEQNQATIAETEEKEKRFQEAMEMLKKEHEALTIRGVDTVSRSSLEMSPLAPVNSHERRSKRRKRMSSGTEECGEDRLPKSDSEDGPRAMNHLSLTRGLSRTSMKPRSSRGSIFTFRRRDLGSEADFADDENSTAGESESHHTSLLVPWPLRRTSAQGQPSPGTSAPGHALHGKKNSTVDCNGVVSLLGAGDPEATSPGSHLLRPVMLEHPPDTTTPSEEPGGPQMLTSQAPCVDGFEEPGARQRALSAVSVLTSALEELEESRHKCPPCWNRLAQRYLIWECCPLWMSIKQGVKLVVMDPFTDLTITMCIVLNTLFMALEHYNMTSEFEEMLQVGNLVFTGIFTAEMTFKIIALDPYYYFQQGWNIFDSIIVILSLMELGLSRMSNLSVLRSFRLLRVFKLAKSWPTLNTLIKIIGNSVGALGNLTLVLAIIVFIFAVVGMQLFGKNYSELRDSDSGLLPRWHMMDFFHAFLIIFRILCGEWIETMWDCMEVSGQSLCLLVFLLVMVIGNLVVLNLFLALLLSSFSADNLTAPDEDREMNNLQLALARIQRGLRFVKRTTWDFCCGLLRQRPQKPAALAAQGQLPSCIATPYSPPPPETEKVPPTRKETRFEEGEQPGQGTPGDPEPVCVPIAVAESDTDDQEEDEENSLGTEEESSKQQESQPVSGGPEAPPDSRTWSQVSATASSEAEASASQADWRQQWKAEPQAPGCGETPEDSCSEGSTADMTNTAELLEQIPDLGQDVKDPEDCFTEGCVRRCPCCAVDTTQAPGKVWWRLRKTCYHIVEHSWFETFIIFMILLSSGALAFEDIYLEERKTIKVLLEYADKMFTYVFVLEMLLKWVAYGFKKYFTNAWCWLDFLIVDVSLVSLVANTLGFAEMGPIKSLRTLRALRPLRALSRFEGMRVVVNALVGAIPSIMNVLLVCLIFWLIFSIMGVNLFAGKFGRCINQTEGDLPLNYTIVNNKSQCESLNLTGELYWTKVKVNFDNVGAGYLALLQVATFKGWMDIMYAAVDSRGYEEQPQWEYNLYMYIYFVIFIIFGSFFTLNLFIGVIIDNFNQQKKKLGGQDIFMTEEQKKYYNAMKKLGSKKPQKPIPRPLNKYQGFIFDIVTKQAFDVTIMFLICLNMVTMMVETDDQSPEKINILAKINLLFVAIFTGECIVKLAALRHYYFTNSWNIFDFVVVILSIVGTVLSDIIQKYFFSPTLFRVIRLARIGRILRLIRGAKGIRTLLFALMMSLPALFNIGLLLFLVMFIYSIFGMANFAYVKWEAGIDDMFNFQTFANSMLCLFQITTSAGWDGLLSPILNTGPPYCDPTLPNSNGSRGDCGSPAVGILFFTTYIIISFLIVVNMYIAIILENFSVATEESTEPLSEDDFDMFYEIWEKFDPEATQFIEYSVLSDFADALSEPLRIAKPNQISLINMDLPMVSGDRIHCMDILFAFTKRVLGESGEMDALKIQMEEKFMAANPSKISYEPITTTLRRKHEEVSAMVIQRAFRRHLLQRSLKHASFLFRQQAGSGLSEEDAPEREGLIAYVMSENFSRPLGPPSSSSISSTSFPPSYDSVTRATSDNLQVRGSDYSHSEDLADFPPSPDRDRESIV

Nav 1.7, sequence (Q15858 whole entry): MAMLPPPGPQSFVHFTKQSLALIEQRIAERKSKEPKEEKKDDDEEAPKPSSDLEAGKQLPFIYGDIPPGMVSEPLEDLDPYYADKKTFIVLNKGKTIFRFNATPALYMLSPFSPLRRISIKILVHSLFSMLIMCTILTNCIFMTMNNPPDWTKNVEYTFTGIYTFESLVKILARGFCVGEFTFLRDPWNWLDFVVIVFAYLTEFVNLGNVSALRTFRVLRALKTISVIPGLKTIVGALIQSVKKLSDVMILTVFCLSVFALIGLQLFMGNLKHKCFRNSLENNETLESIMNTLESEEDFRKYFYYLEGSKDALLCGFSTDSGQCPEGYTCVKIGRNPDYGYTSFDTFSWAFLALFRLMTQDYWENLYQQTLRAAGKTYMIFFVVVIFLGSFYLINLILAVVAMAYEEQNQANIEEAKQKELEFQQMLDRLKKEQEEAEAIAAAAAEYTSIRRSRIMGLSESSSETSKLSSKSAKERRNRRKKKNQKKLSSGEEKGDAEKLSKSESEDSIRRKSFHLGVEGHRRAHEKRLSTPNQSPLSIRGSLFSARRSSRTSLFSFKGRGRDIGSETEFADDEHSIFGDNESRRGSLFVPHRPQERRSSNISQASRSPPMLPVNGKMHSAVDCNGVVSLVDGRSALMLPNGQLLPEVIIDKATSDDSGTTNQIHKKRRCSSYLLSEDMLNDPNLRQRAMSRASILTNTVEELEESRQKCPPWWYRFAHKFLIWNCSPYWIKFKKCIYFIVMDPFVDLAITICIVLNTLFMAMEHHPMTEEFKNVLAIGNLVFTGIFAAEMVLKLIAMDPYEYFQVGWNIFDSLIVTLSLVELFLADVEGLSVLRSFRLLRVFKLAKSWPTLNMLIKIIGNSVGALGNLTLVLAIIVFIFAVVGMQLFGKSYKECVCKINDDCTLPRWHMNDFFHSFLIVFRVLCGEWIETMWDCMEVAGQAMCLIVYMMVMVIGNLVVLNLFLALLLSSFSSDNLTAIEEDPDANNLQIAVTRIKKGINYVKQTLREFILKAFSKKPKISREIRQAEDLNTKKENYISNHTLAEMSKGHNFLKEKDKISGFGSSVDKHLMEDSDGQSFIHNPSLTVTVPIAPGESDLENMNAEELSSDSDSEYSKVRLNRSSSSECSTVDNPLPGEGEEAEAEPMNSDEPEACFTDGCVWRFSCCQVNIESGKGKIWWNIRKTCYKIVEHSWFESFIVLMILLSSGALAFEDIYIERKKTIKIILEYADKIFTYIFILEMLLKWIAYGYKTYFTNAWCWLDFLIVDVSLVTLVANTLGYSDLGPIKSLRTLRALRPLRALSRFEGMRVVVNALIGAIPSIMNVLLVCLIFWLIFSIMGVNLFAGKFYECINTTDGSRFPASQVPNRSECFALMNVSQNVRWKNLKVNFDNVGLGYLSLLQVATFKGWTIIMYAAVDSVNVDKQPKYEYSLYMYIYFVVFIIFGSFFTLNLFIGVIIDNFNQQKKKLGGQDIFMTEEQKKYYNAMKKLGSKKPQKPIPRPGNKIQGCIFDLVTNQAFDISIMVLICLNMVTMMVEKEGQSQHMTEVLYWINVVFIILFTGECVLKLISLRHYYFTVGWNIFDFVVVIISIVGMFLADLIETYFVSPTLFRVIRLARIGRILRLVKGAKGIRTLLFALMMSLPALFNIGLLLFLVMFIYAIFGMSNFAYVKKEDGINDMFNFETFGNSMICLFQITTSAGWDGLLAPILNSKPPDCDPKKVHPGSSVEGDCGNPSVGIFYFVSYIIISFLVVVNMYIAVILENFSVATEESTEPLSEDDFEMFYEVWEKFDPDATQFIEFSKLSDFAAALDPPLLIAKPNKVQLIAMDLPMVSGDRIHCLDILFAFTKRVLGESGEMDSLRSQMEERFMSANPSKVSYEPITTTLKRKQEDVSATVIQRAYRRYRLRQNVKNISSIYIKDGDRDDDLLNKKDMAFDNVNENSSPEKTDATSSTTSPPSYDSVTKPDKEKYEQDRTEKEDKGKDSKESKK

As for `O=S(=O)(Nc1ncccn1)c1ccc2c(c1)OCC[C@@H]2c1ccc(C(F)(F)F)cc1-c1nccs1` (racemic) [Example 93, (R/S)—N-(pyrimidin-2-yl)-4-(2-(thiazol-2-yl)-4-(trifluoromethyl)phenyl)chroman-7-sulfonamide], the pIC50 – broadly, the IC50 on a negative log10 scale, so that one unit is a factor of ten – in data set [1] was 8.40. Moreover, the inhibition (in general, the drop in the measured response relative to a control, in per cent) at 10 µM in data set [2] came out at 56%. `O=S(=O)(Nc1ccncn1)c1ccc2c(c1)OCC[C@@H]2c1ccc(C(F)(F)F)cc1-c1nccs1` (racemic) [Example 94, (R/S)—N-(pyrimidin-4-yl)-4-(2-(thiazol-2-yl)-4-(trifluoromethyl)phenyl)chroman-7-sulfonamide]: in data set [1], the pIC50 was 8.52. The inhibition at 10 µM in data set [2] came out at 51%. On the same counts, the results for `O=S(=O)(Nc1cccnn1)c1ccc2c(c1)OCC[C@@H]2c1ccc(C(F)(F)F)cc1-c1nccs1` (racemic) [Example 95, (R/S)—N-(pyridazin-3-yl)-4-(2-(thiazol-2-yl)-4-(trifluoromethyl)phenyl)chroman-7-sulfonamide] are 7.96 and 74%.

Turning to `O=S(=O)(Nc1cccc(F)n1)c1ccc2c(c1)OCC[C@@H]2c1ccc(C(F)(F)F)cc1-c1nccs1` (racemic) [Example 96, (R/S)—N-(6-fluoropyridin-2-yl)-4-(2-(thiazol-2-yl)-4-(trifluoromethyl)phenyl)chroman-7-sulfonamide], in data set [1], the negative-log IC50 (pIC50) is 8.10. The compound further displayed an inhibition at 10 µM in data set [2] of 70%.

Turning to `CCOc1ccc(-c2cc(C(F)(F)F)ccc2[C@H]2CCOc3cc(S(=O)(=O)Nc4ncccn4)ccc32)cn1` (racemic) [Example 103, (R/S)-4-(2-(6-ethoxypyridin-3-yl)-4-(trifluoromethyl)phenyl)-N-(pyrimidin-2-yl)chroman-7-sulfonamide], the pIC50 was 8.00 in data set [1] and 6.03 in data set [2]. In the case of `O=S(=O)(Nc1ncccn1)c1ccc2c(c1)OCC[C@@H]2c1ccc(C(F)(F)F)cc1Cl` (racemic) [Example 104, (S/R)-4-(2-Chloro-4-(trifluoromethyl)phenyl)-N-(pyrimidin-2-yl)chroman-7-sulfonamide], in data set [1], the pIC50 is 6.74. The IC50 (usually the concentration that gives 50% inhibition) in data set [2] is over 10 µM. The like results for `O=S(=O)(Nc1ncc(F)cn1)c1ccc2c(c1)OCC[C@@H]2c1ccc(C(F)(F)F)cc1Cl` (racemic) [Example 105, (S/R)-4-(2-Chloro-4-(trifluoromethyl)phenyl)-N-(5-fluoropyrimidin-2-yl)chroman-7-sulfonamide] were, in that order, 5.82 and over 10 µM.

As for `O=S(=O)(Nc1ccncn1)c1ccc2c(c1)OCC[C@@H]2c1ccc(C(F)(F)F)cc1Cl` (racemic) [Example 106, (S/R)-4-(2-Chloro-4-(trifluoromethyl)phenyl)-N-(pyrimidin-4-yl)chroman-7-sulfonamide], the pIC50 in data set [1] is 6.83. Further, the IC50 in data set [2] was over 10 µM. The like results for `O=S(=O)(Nc1cccnn1)c1ccc2c(c1)OCC[C@@H]2c1ccc(C(F)(F)F)cc1Cl` (racemic) [Example 107, (S/R)-4-(2-Chloro-4-(trifluoromethyl)phenyl)-N-(pyridazin-3-yl)chroman-7-sulfonamide] were, in that order, 6.64 and over 10 µM. As to `O=S(=O)(Nc1cccc(F)n1)c1ccc2c(c1)OCC[C@@H]2c1ccc(C(F)(F)F)cc1Cl` (racemic) [Example 108, (S/R)-4-(2-chloro-4-(trifluoromethyl)phenyl)-N-(6-fluoropyridin-2-yl)chroman-7-sulfonamide], the negative-log IC50 (pIC50) in data set [1] was 7.24; in data set [2], 5.66. Regarding `O=C1CCCN1c1cc(C(F)(F)F)ccc1[C@H]1CCOc2cc(S(=O)(=O)Nc3ncccn3)ccc21` (racemic) [Example 115, (R/S)-4-(2-(2-oxopyrrolidin-1-yl)-4-(trifluoromethyl)phenyl)-N-(pyrimidin-2-yl)chroman-7-sulfonamide], in data set [1], the negative logarithm of the IC50 (pIC50) was 7.39. In data set [2], the IC50 was over 10 µM. On the same counts, the results for `O=C1CCCN1c1cc(C(F)(F)F)ccc1[C@H]1CCOc2cc(S(=O)(=O)Nc3ccncn3)ccc21` (racemic) [Example 116, (R/S)-4-(2-(2-oxopyrrolidin-1-yl)-4-(trifluoromethyl)phenyl)-N-(pyrimidin-4-yl)chroman-7-sulfonamide] are 5.71 and over 10 µM. Consider `O=C1CCCN1c1cc(C(F)(F)F)ccc1[C@H]1CCOc2cc(S(=O)(=O)Nc3cccnn3)ccc21` (racemic) [Example 117, (R/S)-4-(2-(2-oxopyrrolidin-1-yl)-4-(trifluoromethyl)phenyl)-N-(pyridazin-3-yl)chromane-7-sulfonamide], for which the negative logarithm of the IC50 (pIC50) in data set [1] is 6.97. Moreover, the IC50 in data set [2] is over 10 µM.

`O=S(=O)(Nc1cccnn1)c1ccc2c(c1)OCC[C@@H]2c1ccc(C(F)(F)F)cc1N1CCOCC1` (racemic) [Example 122, (R/S)-4-(2-morpholino-4-(trifluoromethyl)phenyl)-N-(pyridazin-3-yl)chroman-7-sulfonamide]: the pIC50 in data set [1] was 7.42. Further, the inhibition at 10 µM in data set [2] is 54%.

In the case of `COCCOc1cc(C(F)(F)F)ccc1[C@H]1CCOc2cc(S(=O)(=O)Nc3ncc(F)cn3)ccc21` (racemic) [Example 126, (R/S)—N-(5-fluoropyrimidin-2-yl)-4-(2-(2-methoxyethoxy)-4-(trifluoromethyl)phenyl)chroman-7-sulfonamide], in data set [1], the pIC50 was 6.85. Besides, the IC50 in data set [2] is over 10 µM. With `COCCOc1cc(C(F)(F)F)ccc1[C@H]1CCOc2cc(S(=O)(=O)Nc3ccncn3)ccc21` (racemic) [Example 127, (R/S)-4-(2-(2-methoxyethoxy)-4-(trifluoromethyl)phenyl)-N-(pyrimidin-4-yl)chroman-7-sulfonamide], in data set [1], the pIC50 was 8.40. Moreover, the inhibition at 10 µM in data set [2] worked out at 37%. On to `COCCOc1cc(C(F)(F)F)ccc1[C@H]1CCOc2cc(S(=O)(=O)Nc3cccnn3)ccc21` (racemic) [Example 128, (R/S)-4-(2-(2-methoxyethoxy)-4-(trifluoromethyl)phenyl)-N-(pyridazin-3-yl)chroman-7-sulfonamide], for which the pIC50 in data set [1] is 6.84. The inhibition at 10 µM in data set [2] is 55%. In the case of `COCCOc1cc(C(F)(F)F)ccc1[C@H]1CCOc2cc(S(=O)(=O)Nc3cccc(F)n3)ccc21` (racemic) [Example 129, (R/S)—N-(6-fluoropyridin-2-yl)-4-(2-(2-methoxyethoxy)-4-(trifluoromethyl)phenyl)chroman-7-sulfonamide], the pIC50 in data set [1] is 7.80. Further, at 10 µM the inhibition in data set [2] was 62%. For the compound `COCCCOc1cc(C(F)(F)F)ccc1[C@H]1CCOc2cc(S(=O)(=O)Nc3ncc(F)cn3)ccc21` (racemic) [Example 132, (R/S)—N-(5-fluoropyrimidin-2-yl)-4-(2-(3-methoxypropoxy)-4-(trifluoromethyl)phenyl)chroman-7-sulfonamide], in data set [1], the pIC50 was 6.79. Also, the IC50 in data set [2] is over 10 µM.

Consider `COCCCOc1cc(C(F)(F)F)ccc1[C@H]1CCOc2cc(S(=O)(=O)Nc3cccnn3)ccc21` (racemic) [Example 133, (R/S)-4-(2-(3-methoxypropoxy)-4-(trifluoromethyl)phenyl)-N-(pyridazin-3-yl)chroman-7-sulfonamide], for which the pIC50 in data set [1] was 6.89. The compound further showed an inhibition at 10 µM in data set [2] of 66%.

Regarding `COCCCOc1cc(C(F)(F)F)ccc1[C@H]1CCOc2cc(S(=O)(=O)Nc3cccc(F)n3)ccc21` (racemic) [Example 134, (R/S)—N-(6-fluoropyridin-2-yl)-4-(2-(3-methoxypropoxy)-4-(trifluoromethyl)phenyl)chroman-7-sulfonamide], the pIC50 in data set [1] is 7.51; in data set [2] it was 5.87. On to `COCCc1cc(C(F)(F)F)ccc1[C@H]1CCOc2cc(S(=O)(=O)Nc3ncccn3)ccc21` (racemic) [Example 135, (R/S)-4-(2-(2-methoxyethyl)-4-(trifluoromethyl)phenyl)-N-(pyrimidin-2-yl)chroman-7-sulfonamide], for which the pIC50 in data set [1] is 6.15. Besides, the IC50 in data set [2] was over 10 µM. As for `COCCc1cc(C(F)(F)F)ccc1[C@H]1CCOc2cc(S(=O)(=O)Nc3ncc(F)cn3)ccc21` (racemic) [Example 136, (R/S)—N-(5-fluoropyrimidin-2-yl)-4-(2-(2-methoxyethyl)-4-(trifluoromethyl)phenyl)chroman-7-sulfonamide], the negative logarithm of the IC50 (pIC50) in data set [1] is 6.18. 10 µM produced 33% inhibition in data set [2]. In the case of `COCCc1cc(C(F)(F)F)ccc1[C@H]1CCOc2cc(S(=O)(=O)Nc3cccc(F)n3)ccc21` (racemic) [Example 137, (R/S)—N-(6-fluoropyridin-2-yl)-4-(2-(2-methoxyethyl)-4-(trifluoromethyl)phenyl)chroman-7-sulfonamide], the results for the pIC50 in data set [1] and in data set [2] were 7.92 and 5.44, respectively. `COCCc1cc(C(F)(F)F)ccc1[C@H]1CCOc2cc(S(=O)(=O)Nc3ccncn3)ccc21` (racemic) [Example 138, (R/S)-4-(2-(2-methoxyethyl)-4-(trifluoromethyl)phenyl)-N-(pyrimidin-4-yl)chroman-7-sulfonamide]: the pIC50 in data set [1] was 6.23. Further, the IC50 in data set [2] was over 10 µM. `COCCc1cc(C(F)(F)F)ccc1[C@H]1CCOc2cc(S(=O)(=O)Nc3cccnn3)ccc21` (racemic) [Example 139, (R/S)-4-(2-(2-methoxyethyl)-4-(trifluoromethyl)phenyl)-N-(pyridazin-3-yl)chroman-7-sulfonamide]: in data set [1], the pIC50 is 7.48. The IC50 in data set [2] was over 10 µM.

Regarding `Cc1cccc(NS(=O)(=O)c2ccc3c(c2)OCC[C@@H]3c2ccc(C(F)(F)F)cc2-c2ccnn2C)n1` [Example 20, (S&R)-4-(2-(1-methyl-1H-pyrazol-5-yl)-4-(trifluoromethyl)phenyl)-N-(6-methylpyridin-2-yl)chroman-7-sulfonamide], the pIC50 in data set [1] is 6.61. Same read-out and setting: for `O=C(O)c1ccc(-c2cc(C(F)(F)F)ccc2[C@@H]2CCOc3cc(S(=O)(=O)Nc4ncccn4)ccc32)cc1` [Example-187, (S&R)-2′-(7-(N-(pyrimidin-2-yl)sulfamoyl)chroman-4-yl)-5′-(trifluoromethyl)-[1,1′-biphenyl]-4-carboxylic acid] the value was 5.59.

Source of the values: patent US10239869B2, “Sulfonamide compounds as voltage-gated sodium channel modulators” (LUPIN LIMITED, priority 2015, dated 2019).
